From publication PMC10503972, “Synthesis, predictions of drug-likeness, and pharmacokinetic properties of some chiral thioureas as potent enzyme inhibition agents” (Turkish Journal of Chemistry, 2021)

How the values were obtained:
[1] = target: urease (Canavalia ensiformis, UniProt P07374); details: read-out: Urease assay IC50; means ± S.E.M. of three parallel measurements
Method: Solutions of chiral thioureas (1 – 17) were prepared at four different concentrations, i.e., 400, 200, 100, and 50 μM for urease inhibitory assay in EtOH. Additionally, EtOH was used as a control, while thiourea was used as urease standards. […] The spectrophotometric analysis of urease inhibitory activity was performed according to the literature procedures by measuring ammonia production using the indophenol method as described earlier [37].
(§1) The bioactivity tests were carried out in triplicate at four different concentrations. Results are given as IC50 (μg/mL). The data were the mean ± S.E.M. (standard error of the meaning) of triplicate analyses of each concentration under the 95 % reliability (p < 0.05).

[2] = target: acetylcholinesterase (AChE) from electric eel (Electrophorus electricus, UniProt O42275); details: read-out: AChE assay IC50; means ± S.E.M. of three parallel measurements
acetylcholinesterase (AChE) from electric eel, sequence (O42275 24-633): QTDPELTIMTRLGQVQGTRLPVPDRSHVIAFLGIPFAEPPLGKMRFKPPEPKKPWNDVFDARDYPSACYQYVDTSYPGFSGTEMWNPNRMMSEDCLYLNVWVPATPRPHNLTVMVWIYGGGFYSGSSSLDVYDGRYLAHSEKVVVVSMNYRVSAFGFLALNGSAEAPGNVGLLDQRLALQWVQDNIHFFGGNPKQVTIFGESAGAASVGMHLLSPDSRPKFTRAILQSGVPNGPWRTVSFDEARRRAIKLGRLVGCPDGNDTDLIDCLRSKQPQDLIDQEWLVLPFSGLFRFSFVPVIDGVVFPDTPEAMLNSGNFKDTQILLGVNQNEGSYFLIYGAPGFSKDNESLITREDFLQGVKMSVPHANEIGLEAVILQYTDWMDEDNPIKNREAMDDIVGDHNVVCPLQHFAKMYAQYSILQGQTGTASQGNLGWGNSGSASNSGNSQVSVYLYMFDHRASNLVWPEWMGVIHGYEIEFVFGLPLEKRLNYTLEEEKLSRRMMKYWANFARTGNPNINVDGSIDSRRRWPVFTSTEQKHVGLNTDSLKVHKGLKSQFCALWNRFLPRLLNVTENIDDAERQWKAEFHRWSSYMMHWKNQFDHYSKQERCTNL
Method: (§2) Herein, acetylcholinesterase (AChE) from electric eel and butyrylcholinesterase (BChE) horse serum was used. The acetylthiocholine iodide and butyryl thiocholine chloride were utilized as substrates.
as §1

[3] = target: butyrylcholinesterase (BChE) horse serum (Equus caballus, UniProt P81908); assay: Anticholinesterase inhibitory activity, BChE assay (Ellman's method); details: read-out: BChE assay IC50; means ± S.E.M. of three parallel measurements
butyrylcholinesterase (BChE) horse serum, sequence (P81908 whole entry): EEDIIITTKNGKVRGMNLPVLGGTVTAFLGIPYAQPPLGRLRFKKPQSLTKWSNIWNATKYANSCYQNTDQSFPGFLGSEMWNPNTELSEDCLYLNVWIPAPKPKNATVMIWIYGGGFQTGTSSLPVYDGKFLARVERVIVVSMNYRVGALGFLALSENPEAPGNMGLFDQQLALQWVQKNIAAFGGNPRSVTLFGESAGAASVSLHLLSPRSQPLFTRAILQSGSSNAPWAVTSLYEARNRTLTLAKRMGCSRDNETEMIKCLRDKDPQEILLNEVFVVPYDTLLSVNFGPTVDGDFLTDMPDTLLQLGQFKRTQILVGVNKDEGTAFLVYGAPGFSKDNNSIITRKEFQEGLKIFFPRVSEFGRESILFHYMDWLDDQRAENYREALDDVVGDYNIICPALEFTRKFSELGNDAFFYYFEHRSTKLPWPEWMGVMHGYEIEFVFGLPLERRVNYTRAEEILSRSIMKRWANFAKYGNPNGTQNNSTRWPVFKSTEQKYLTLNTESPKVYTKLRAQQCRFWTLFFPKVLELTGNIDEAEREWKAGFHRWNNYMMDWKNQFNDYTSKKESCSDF
Method: as §2, §1

[4] = target: tyrosinase; assay: Tyrosinase inhibitory activity; format: biochemical; details: means ± S.E.M. of three parallel measurements
Method: The spectrophotometric analysis of tyrosinase inhibitory activities was performed according to the slightly modified literature procedures of Hearing.

urease, sequence (P07374 whole entry, looked up): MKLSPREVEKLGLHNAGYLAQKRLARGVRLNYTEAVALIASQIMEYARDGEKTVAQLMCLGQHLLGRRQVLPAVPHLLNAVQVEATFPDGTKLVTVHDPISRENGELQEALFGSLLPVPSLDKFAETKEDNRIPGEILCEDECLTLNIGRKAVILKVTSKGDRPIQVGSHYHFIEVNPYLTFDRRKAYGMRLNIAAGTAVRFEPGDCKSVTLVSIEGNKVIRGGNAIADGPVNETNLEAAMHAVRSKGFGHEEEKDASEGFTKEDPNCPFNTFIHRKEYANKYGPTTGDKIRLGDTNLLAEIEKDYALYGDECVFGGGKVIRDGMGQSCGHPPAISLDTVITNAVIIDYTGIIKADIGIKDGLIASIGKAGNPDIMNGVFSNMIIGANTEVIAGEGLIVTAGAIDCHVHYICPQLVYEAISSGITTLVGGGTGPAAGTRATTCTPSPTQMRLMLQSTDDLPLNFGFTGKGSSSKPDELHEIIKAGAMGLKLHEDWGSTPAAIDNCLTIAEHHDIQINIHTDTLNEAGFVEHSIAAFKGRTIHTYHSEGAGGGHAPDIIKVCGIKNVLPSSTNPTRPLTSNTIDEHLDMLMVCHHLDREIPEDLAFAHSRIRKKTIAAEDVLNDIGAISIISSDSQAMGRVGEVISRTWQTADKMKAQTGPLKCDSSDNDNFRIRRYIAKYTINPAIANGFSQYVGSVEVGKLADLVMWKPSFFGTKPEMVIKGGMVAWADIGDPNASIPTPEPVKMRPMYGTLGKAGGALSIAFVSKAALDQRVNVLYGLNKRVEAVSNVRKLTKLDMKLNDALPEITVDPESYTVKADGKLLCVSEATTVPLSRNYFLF

| Compound | IC50 [1] | IC50 [2] | IC50 [3] | IC50 [4] |
| --- | --- | --- | --- | --- |
| NC(N)=S [Thiourea] | 24.2 ± 0.3 µM |  |  |  |
| N-(2,4-dimethoxyphenyl)-N′-(2-mercapto-carboxyethanyl)thiourea [Compound 10] |  | 6.8 ± 1.1 µM | 45.8 ± 0.4 µM | 1500 ± 300 µM |
| N-(2,5-dichlorophenyl)-N′-(2-mercapto-carboxyethanyl)thiourea [Compound 15] |  | 44.6 ± 0.3 µM | 82.9 ± 0.4 µM | 22200 ± 900 µM |
| N-(2,5-dimethoxyphenyl)-N′-(2-mercapto-carboxyethanyl)thiourea [Compound 11] |  | 7.2 ± 0.5 µM | 49.7 ± 0.9 µM | 2900 ± 200 µM |
| N-(2-chloro-5-(trifluoromethyl)phenyl)-N′-(2-mercapto-carboxyethanyl)thiourea [Compound 9] |  |  | 80 ± 0.6 µM | 15700 ± 500 µM |
| N-(3,4,5-trimethoxyphenyl)-N′-(2-mercapto-carboxyethanyl)thiourea [Compound 14] |  | 4.8 ± 0.9 µM | 29.5 ± 1.1 µM | 1100 ± 100 µM |
| N-(3,4-dimethoxyphenyl)-N′-(2-mercapto-carboxyethanyl)thiourea [Compound 12] |  | 7.8 ± 0.6 µM | 54 ± 1.3 µM | 1600 ± 600 µM |
| N-(3,5-dimethoxyphenyl)-N′-(2-mercapto-carboxyethanyl)thiourea [Compound 13] |  | 5.7 ± 1 µM | 37.2 ± 0.1 µM | 2200 ± 400 µM |
| N-(4-(diethylamino)phenyl)-N′-(2-mercapto-carboxyethanyl)thiourea [Compound 17] |  | 3.9 ± 0.6 µM | 18.1 ± 0.5 µM | 5300 ± 800 µM |
| N-(4-(dimethylamino)phenyl)-N′-(2-mercapto-carboxyethanyl)thiourea [Compound 16] |  | 4.2 ± 0.6 µM | 24.6 ± 0.7 µM | 4700 ± 300 µM |
| N-(4-(trifluoromethyl)phenyl)-N′-(2-mercapto-carboxyethanyl)thiourea [Compound 5] |  | 16.7 ± 0.2 µM | 64.3 ± 0.7 µM | 10400 ± 200 µM |
| N-(4-bromophenyl)-N′-(2-mercapto-carboxyethanyl)thiourea [Compound 2] |  | 36.4 ± 0.2 µM | 75.1 ± 0.5 µM | 28800 ± 100 µM |
| N-(4-chlorophenyl)-N′-(2-mercapto-carboxyethanyl)thiourea [Compound 3] |  | 31.7 ± 0.8 µM | 72.8 ± 1.1 µM | 16100 ± 900 µM |
| N-(4-cyanophenyl)-N′-(2-mercapto-carboxyethanyl)thiourea [Compound 7] |  | 46.8 ± 1.3 µM | 84.4 ± 0.9 µM | 35000 ± 1100 µM |
| N-(4-fluorophenyl)-N′-(2-mercapto-carboxyethanyl)thiourea [Compound 4] |  | 28.5 ± 0.5 µM | 70.4 ± 0.9 µM | 12500 ± 300 µM |
| N-(4-methoxyphenyl)-N′-(2-mercapto-carboxyethanyl)thiourea [Compound 6] |  | 8.1 ± 0.9 µM | 58.2 ± 0.1 µM | 1900 ± 500 µM |
| N-(5-chloro-2-methoxyphenyl)-N′-(2-mercapto-carboxyethanyl)thiourea [Compound 8] |  | 9.5 ± 1.2 µM | 61.2 ± 0.5 µM | 4000 ± 600 µM |
| N-phenyl-N′-(2-mercapto-carboxyethanyl)thiourea [Compound 1] |  | 23.4 ± 1.2 µM | 66 ± 0.1 µM | 9700 ± 1000 µM |
